We go through 3 compounds from article PMC4704819, “Honey Bee Allatostatins Target Galanin/Somatostatin-Like Receptors and Modulate Learning: A Conserved Function?” (PLoS ONE, 2016).

*1 amine or outer side, *2 acyl side, *3 side chain or, on linkers, in order; H or OH if unused. Where a SMILES comes first, the peptide text is derived from it. Where no end group is shown, it is not given here. Side-chain parts run from the residue outwards. [ ]: non-standard residue; d: D form. The star is where a group is joined. Ethylenediamine = C(CN[*:2])N[*:1]; Hyp = O=C(O)[C@@H]1C[C@@H](O)CN1; Phg = N[C@H](C(=O)O)c1ccccc1; CO = O=C([*:1])[*:2]; Bn = c1ccc(C*)cc1

What is called EC50 is the concentration needed to bring the measured effect to its halfway point.

In assay [1] the target is T1, Apime-ASTA-R (Apis mellifera, UniProt A0A7M7ILT1).
T1 sequence (A0A7M7ILT1 1-361): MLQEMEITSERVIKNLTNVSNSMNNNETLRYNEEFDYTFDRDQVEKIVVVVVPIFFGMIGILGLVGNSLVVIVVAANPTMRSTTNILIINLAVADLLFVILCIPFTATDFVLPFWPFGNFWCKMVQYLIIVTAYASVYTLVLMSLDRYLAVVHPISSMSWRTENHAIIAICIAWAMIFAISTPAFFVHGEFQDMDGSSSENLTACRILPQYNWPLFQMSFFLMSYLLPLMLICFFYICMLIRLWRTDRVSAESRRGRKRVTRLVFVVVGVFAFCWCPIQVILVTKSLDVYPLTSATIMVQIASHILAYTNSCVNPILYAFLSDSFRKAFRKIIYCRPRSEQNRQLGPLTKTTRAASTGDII
Kind of assay: Intracellular cAMP reporter assay, HEK293 cells expressing Apime-ASTA-R. It counts as cell-based. The procedure:
(§1) For intracellular cAMP measurements, cells were bathed in trypsin EDTA and collected, then suspended in fresh DMEM. Transfections with pRK5-ApimeAstC-R, pRK5-ApimeAstA-R or empty pRK5 vector were carried out in 15 ml Falcon tubes. Transfection medium for HEK293 cells was prepared using the Lipofectamine LTX kit (Invitrogen) with 2.5 ml Opti-MEM® (Gibco), 12.5 μl Plus™ Reagent and 4 μg of ApimeASTC-R (or ApimeASTA-R, or empty) expression construct, and 2 μg of CRE(6x)-Luc plasmid. The luciferase ORF, downstream of six tandem repeats of a cyclic AMP responsive element (CRE), in front of a minimum collate promoter, was used as a reporter gene (this reporter plasmid has been used by others)
We followed a previousy published protocol: HEK293 cells in Dulbecco's Modified Eagles Medium nutrient mixture F12-Ham (DMEM/F12, Sigma–Aldrich) supplemented with 10% heat-inactivated fetal bovine serum (Gibco), 100 IU/ml penicillin, 100 μg/ml streptomycin (Gibco) were maintained in an incubator at 37°C with constant supply of 5% CO2, until they reached 60–80% confluence. Cells were then bathed in trypsin EDTA (Gibco) until rounded. The flask was then tapped to loosen the cells, which were subsequently washed off with 5 ml DMEM/F12. […]
Prior to measuring cAMP, the cell medium was removed by carefully inverting the 96-well plate on filter paper and quickly replaced with 100 μl of DMEM/F12 without phenol red (Invitrogen), but containing 200 μM 3-isobutyl-1-methylxanthine (IBMX, Sigma–Aldrich) to prevent cAMP breakdown, as well as drugs to be tested. […] The 96-well plate was then placed in the dark for 15 min before light emission resulting from luciferase enzymatic activity was recorded. Measurements lasting 0.2 s/well were taken every 55 s for 10 cycles using a FLUOstar Omega microplate reader (BMG Labtech). Results were analyzed by means of the Omega software packages and further processed by Excel and GraphPad Prism softwares. […]

The target in assay [2] is T2, Apime-ASTC-R (Apis mellifera, UniProt A0A7M7GNE5).
T2 sequence (A0A7M7GNE5 1-423): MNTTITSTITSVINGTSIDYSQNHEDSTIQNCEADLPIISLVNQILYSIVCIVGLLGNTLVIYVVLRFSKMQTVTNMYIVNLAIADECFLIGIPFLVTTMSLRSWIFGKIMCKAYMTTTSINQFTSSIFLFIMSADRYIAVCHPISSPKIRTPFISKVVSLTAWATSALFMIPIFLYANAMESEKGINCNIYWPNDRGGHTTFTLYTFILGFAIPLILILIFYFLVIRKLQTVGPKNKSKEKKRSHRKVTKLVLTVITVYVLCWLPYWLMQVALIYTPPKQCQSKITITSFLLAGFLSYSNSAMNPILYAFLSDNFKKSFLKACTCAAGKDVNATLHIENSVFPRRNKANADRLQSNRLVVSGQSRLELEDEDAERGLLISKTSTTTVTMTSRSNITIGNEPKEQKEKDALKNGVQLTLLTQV
Kind of assay: Intracellular cAMP reporter assay, HEK293 cells expressing Apime-ASTC-R. It counts as cell-based. Conditions: Fig 5B, 2 transfections in duplicates or triplicates. The procedure: as §1
(§2) We followed a previousy published protocol: HEK293 cells in Dulbecco's Modified Eagles Medium nutrient mixture F12-Ham (DMEM/F12, Sigma–Aldrich) supplemented with 10% heat-inactivated fetal bovine serum (Gibco), 100 IU/ml penicillin, 100 μg/ml streptomycin (Gibco) were maintained in an incubator at 37°C with constant supply of 5% CO2, until they reached 60–80% confluence. Cells were then bathed in trypsin EDTA (Gibco) until rounded. The flask was then tapped to loosen the cells, which were subsequently washed off with 5 ml DMEM/F12. The cells were gently centrifuged at 800 rpm for 5 minutes and carefully suspended in fresh DMEM, which was divided in two for transfection with receptor constructs or empty vectors. After 5 min at room temperature, 30 μl LTX was added. After an incubation period of 30 min at room temperature, the DNA/LTX mix was added to the cells. The cells were then aliquoted (100 μl per well) into a clear bottom 96-well plate (Greiner bio-one #655090) and incubated overnight (37°C, 5% CO2).
(§3) Prior to measuring cAMP, the cell medium was removed by carefully inverting the 96-well plate on filter paper and quickly replaced with 100 μl of DMEM/F12 without phenol red (Invitrogen), but containing 200 μM 3-isobutyl-1-methylxanthine (IBMX, Sigma–Aldrich) to prevent cAMP breakdown, as well as drugs to be tested. In each experiment, some wells were used to measure basal levels of cAMP in the cells (negative control), while others were used to measure cAMP levels in cells exposed to 10 μM forskolin analogue (NKH-477, Sigma Aldrich, positive control). […] All cells were incubated at 37°C and 5% CO2 for 3–4 h to allow transcription of the reporter gene before 100 μl of freshly reconstituted Steadylite Plus™ substrate (PerkinElmer) was added to each well. The 96-well plate was then placed in the dark for 15 min before light emission resulting from luciferase enzymatic activity was recorded. Measurements lasting 0.2 s/well were taken every 55 s for 10 cycles using a FLUOstar Omega microplate reader (BMG Labtech). Results were analyzed by means of the Omega software packages and further processed by Excel and GraphPad Prism softwares. In order to facilitate comparisons across experiments, bioluminescence levels are expressed relative to those in mock-transfected cells (transfected with the vector devoid of the receptor sequence) untreated with NKH-477, which were arbitrarily set at 100.
(§4) To test this prediction, we expressed the two receptors separately in HEK293 cells together with the luciferase reporter gene, downstream of the cAMP response element, CRE, but without exogenous G proteins.
For orientation: In a reporter assay the amount or activity of a reporter protein is the signal.

In assay [3] the test system is mock-transfected HEK293 cells. Kind of assay: Intracellular cAMP reporter assay, mock-transfected HEK293 cells (empty vector). It counts as cell-based, human. The procedure: as §1, §2, §3, §4
The target in assay [4] is T1, Apime-ASTA-R. As to the kind of experiment: Intracellular calcium measurement, HEK293 cells expressing Apime-ASTA-R with Gαqi9 chimeric G protein. Format: cell-based. How it is done:
(§5) This vector contains an ATG initiation codon in phase with a mammalian signal peptide sequence of metabotropic glutamate receptor 5 to address receptor protein to the cell membrane, with a hemagglutinin sequence (TAG HA), and MluI and HindIII restriction sites used for cloning. The coding regions of the genes of interest were PCR amplified from cDNA template. After extraction from whole brains, 1 μg of total RNA was reverse-transcribed with random primers. […] PCR reactions included: 30s at 98°C, then 30 cycles of 10s at 98°C, 30s at 60°C, 1 min at 72°C and finally, 5 minutes at 72°C. Cloning required several amplification and digestion steps to insert the full cDNA sequences in the vector.
In all cases, 2 μg of plasmid DNA encoding the Gαqi9 chimeric G protein was included to enable artificial coupling of the receptors to phospholipase C. Electroporation (250 V, 800 μF, Biorad GenePulser X-cell) was performed in a total volume of 300 μl of electroporation buffer (50 mM K2HPO4, 20 mM CH3COOK, 20 mM KOH, 26.5 mM MgSO4, pH 7.4). After electroporation, cells were resuspended in 10 ml of culture medium and split (100 μl/well) into polyornithine-coated (Sigma #P3655), black-walled, clear bottom 96-well plates (Greiner bio-one #655090) and grown for a further 48 h prior to analyzing receptor properties. All products used for cell culture were purchased from Invitrogen Life Technologies.
Cells were washed with freshly prepared 20 mM Hepes, 1 mM MgSO4, 3.3 mM Na2CO3, 1.3 mM CaCl2, 0.1% BSA, 2.5 mM probenecid in 1X Hank's balanced salt solution (Gibco #14185), pH7.4 buffer and loaded with 1 μM Ca^2+-sensitive fluorescent dye Fluo-4 AM (Invitrogen # F14202) for 1 h at 37°C. Cells were washed once and incubated with 50 μl of buffer. A plate was prepared with the various concentrations of peptides to be tested, and 50 μl of 2X concentrated-drug solution was added in each well after 20 s of recording. Fluorescence signals (excitation 485 nm, emission 525 nm) were measured by using the fluorescence microplate reader Flexstation (Molecular Devices) at sampling intervals of 1.5 s for 60 s. All represented data correspond to means ± standard deviation (SD) from experiments performed in triplicate.
This method allows detecting ligand-induced activation of the receptor by measuring the release of intracellular calcium.
On the technique in general: Calcium flux is commonly read through the fluorescence of an indicator in the cells.

The target of assay [5] is T2, Apime-ASTC-R. As to the kind of experiment: Intracellular calcium measurement, HEK293 cells expressing Apime-ASTC-R with Gαqi9 chimeric G protein. Format: cell-based. To be noted: concentrations up to 0.1mM; data not shown. How it is done:
as §5
In all cases, 2 μg of plasmid DNA encoding the Gαqi9 chimeric G protein was included to enable artificial coupling of the receptors to phospholipase C. […]
Cells were washed with freshly prepared 20 mM Hepes, 1 mM MgSO4, 3.3 mM Na2CO3, 1.3 mM CaCl2, 0.1% BSA, 2.5 mM probenecid in 1X Hank's balanced salt solution (Gibco #14185), pH7.4 buffer and loaded with 1 μM Ca^2+-sensitive fluorescent dye Fluo-4 AM (Invitrogen # F14202) for 1 h at 37°C. […] Fluorescence signals (excitation 485 nm, emission 525 nm) were measured by using the fluorescence microplate reader Flexstation (Molecular Devices) at sampling intervals of 1.5 s for 60 s. […]

Take `C=C[C@@]1(C)CC(=O)[C@]2(O)[C@@]3(C)[C@@H](O)CCC(C)(C)[C@@H]3[C@H](OC(=O)CCN(C)C)[C@H](OC(C)=O)[C@@]2(C)O1.Cl` [NKH-477, reference compound]: the “ability to increase bioluminescence versus mock-transfected cells, in words” value at Apime-ASTA-R [1] (Fig 5B, 2 transfections in duplicates or triplicates) was “reduced ability to increase bioluminescence levels”; at Apime-ASTC-R [2], “reduced ability to increase bioluminescence levels”. In addition, the “increase in cAMP levels (bioluminescence)” value at Apime-ASTA-R [1] (same concentrations as in mock cells (10 nM to 10 μM), CRE-luciferase, IBMX, Fig 5B, 2 transfections in duplicates or triplicates) is on record as 1.59 fold; on Apime-ASTC-R [2] (same concentrations as in mock cells (10 nM to 10 μM), CRE-luciferase, IBMX) it was 1.24 fold. Moreover, the “increase in bioluminescence (cAMP), in words” value in assay [3] (10 nM to 10 μM) was “increased bioluminescence in a dose-dependent manner”. In addition, in assay [3] (10 μM, CRE-luciferase, 200 μM IBMX, Fig 5B, 2 transfections in duplicates or triplicates), the “increase in bioluminescence (cAMP) compared to baseline” value was determined as 2.5 fold.

As for `NCCCC[C@@H]1NC(=O)[C@@H](Cc2c[nH]c3ccccc23)NC(=O)[C@H](c2ccccc2)NC(=O)[C@@H]2C[C@@H](OC(=O)NCCN)CN2C(=O)[C@H](Cc2ccccc2)NC(=O)[C@H](Cc2ccc(OCc3ccccc3)cc2)NC1=O` [SOM230, reference compound] (cyclo([Hyp]([CO-Ethylenediamine])[Phg][dW]KY(Bn)F); ring closure inferred), the calcium release entry on Apime-ASTA-R [4] (concentrations up to 0.1mM, data not shown) is given as “No calcium release was detected”; at Apime-ASTC-R [5] it was “No calcium release was detected”.

In the case of GRQPYSFGL-NH2 [Apime-ASTA], the EC50 at Apime-ASTA-R [4] (HEK293, Gαqi9, Fluo-4 AM, Flexstation (ex 485 nm, em 525 nm), pH 7.4, experiments in triplicate, read-out: EC50, calcium release) was 1.99 nM; on Apime-ASTA-R [1] (CRE-luciferase, 200 μM IBMX, no exogenous G protein, 37°C 3–4 h, normalized to mock-transfected cells, 3 independent transfections in triplicate, Fig 5C, read-out: mean EC50, increase in cAMP levels), 103 nM.
